Source: patent publication US9896440B2, “Aryl substituted heterocyclyl sulfones” (GRÜNENTHAL GMBH, priority 2014, dated 2018)

Biological target: T1, Human CaV2.2 channels (Homo sapiens, UniProt Q00975)
T1 construct: expressed in transfected cells; Kir2.3 also stably co-expressed
Assay: Fluorescence assay for CaV2.2 channels using potassium depolarization to induce channel opening (FLIPR, Fluo 4)
Type: cell-based
Conditions: 30 mM KCl assay buffer (inactivated channel state), HEK293 cells; for Activity Category: %-Inhib (CaV2.2) @3 μM @30 mM KCl: 3 μM test compound; for inhibition at 3 µM: HEK293, 3 μM test compound, read-out: Activity Category: %-Inhib (CaV2.2) @3 μM @30 mM KCl
Excerpt: In the process, the Ca^2+ influx is quantified in the FLIPR assay with the aid of a Ca^2+-sensitive dye (type Fluo-4, Molecular Probes Europe BV, Leiden, the Netherlands) in a fluorescent imaging plate reader (FLIPR 3, Molecular Devices, Sunnyvale, USA), as described hereinafter.
Human CaV2.2 channels were stably expressed in HEK293 cells together with alpha2-delta and beta subunits of voltage gated calcium channels. In addition, an inwardly rectifying potassium channel (Kir2.3) was stably expressed in these cells to augment control of the cell membrane potential by the concentration of extracellular potassium ions. Raise of the extracellular potassium concentration leads to depolarization of the membrane potential and thus regulates the voltage dependent state of CaV2.2 channels. For preparation, cells were seeded in black poly-D-lysine coated 96-well plates (Becton Dickinson, Biocoat 4640) in 100 μL medium [500 mL DMEM/F-12 plus Glutamax (Invitrogen 31331-093) plus 5.5 mL MEM NEAA 100× (Invitrogen 11140-035) plus 50 mL FBS decomplemented (Invitrogen 10270-106) plus 200 μg/mL Geneticin (Invitrogen 10131-027) plus 50 μg/mL Hygromycin B (Invitrogen 10687-010) plus 2 μg/mL Blasticidin (anti-bl5b Invivo-Gen) plus 0.2 μg/mL Puromycin (A 11138-03)] at a cell density of 30.000 cells per well. Plates were incubated at 37° C. (5% CO2) for 20 to 23 h. On the day of experiment medium was discarded and cells were loaded with Fluo 4 by addition of 100 μL of basic assay buffer (10 mM HEPES, 1 mM KCl, 149 mM NaCl, 0.8 mM CaCl2, 1.7 mM MgCl2, 10 mM Glucose, 0.1% BSA. pH 7.4) containing 2 μM Fluo 4 (Molecular Probes; F-14201), 0.01% pluronic acid (Molecular Probes; P-6866) and 2.5 mM probenecid (Molecular Probes; P36400). Cells were incubated in the dark at 25° C. for 60 min. Then dye containing buffer was discarded and 100 μL basic (1 mM KCl) or alternative (30 mM KCl) assay buffer was added. The alternative assay buffer contained altered concentrations of KCl (30 mM) and NaCl (120 mM) and was used in order to promote the inactivated channel state. After that 25 μL of basic or alternative assay buffer with or without test compound were added and cells were incubated again in the dark at 25° C. for 15 min. Fluorescence intensity was measured on a FLIPR 3 instrument (Molecular Devices Corp., Sunnyvale, Calif.) with excitation at 480 nm and emission at 535 nm. After continuously reading fluorescence for 30 sec, 50 μL of basic assay buffer containing 210 mM KCl (NaCl omitted) were added for depolarization. Peak fluorescent signal intensity was determined and the amplitude of the peak signal, normalized to base line, was used to measure channel inhibition by test compounds.

T1 sequence (Q00975 whole entry): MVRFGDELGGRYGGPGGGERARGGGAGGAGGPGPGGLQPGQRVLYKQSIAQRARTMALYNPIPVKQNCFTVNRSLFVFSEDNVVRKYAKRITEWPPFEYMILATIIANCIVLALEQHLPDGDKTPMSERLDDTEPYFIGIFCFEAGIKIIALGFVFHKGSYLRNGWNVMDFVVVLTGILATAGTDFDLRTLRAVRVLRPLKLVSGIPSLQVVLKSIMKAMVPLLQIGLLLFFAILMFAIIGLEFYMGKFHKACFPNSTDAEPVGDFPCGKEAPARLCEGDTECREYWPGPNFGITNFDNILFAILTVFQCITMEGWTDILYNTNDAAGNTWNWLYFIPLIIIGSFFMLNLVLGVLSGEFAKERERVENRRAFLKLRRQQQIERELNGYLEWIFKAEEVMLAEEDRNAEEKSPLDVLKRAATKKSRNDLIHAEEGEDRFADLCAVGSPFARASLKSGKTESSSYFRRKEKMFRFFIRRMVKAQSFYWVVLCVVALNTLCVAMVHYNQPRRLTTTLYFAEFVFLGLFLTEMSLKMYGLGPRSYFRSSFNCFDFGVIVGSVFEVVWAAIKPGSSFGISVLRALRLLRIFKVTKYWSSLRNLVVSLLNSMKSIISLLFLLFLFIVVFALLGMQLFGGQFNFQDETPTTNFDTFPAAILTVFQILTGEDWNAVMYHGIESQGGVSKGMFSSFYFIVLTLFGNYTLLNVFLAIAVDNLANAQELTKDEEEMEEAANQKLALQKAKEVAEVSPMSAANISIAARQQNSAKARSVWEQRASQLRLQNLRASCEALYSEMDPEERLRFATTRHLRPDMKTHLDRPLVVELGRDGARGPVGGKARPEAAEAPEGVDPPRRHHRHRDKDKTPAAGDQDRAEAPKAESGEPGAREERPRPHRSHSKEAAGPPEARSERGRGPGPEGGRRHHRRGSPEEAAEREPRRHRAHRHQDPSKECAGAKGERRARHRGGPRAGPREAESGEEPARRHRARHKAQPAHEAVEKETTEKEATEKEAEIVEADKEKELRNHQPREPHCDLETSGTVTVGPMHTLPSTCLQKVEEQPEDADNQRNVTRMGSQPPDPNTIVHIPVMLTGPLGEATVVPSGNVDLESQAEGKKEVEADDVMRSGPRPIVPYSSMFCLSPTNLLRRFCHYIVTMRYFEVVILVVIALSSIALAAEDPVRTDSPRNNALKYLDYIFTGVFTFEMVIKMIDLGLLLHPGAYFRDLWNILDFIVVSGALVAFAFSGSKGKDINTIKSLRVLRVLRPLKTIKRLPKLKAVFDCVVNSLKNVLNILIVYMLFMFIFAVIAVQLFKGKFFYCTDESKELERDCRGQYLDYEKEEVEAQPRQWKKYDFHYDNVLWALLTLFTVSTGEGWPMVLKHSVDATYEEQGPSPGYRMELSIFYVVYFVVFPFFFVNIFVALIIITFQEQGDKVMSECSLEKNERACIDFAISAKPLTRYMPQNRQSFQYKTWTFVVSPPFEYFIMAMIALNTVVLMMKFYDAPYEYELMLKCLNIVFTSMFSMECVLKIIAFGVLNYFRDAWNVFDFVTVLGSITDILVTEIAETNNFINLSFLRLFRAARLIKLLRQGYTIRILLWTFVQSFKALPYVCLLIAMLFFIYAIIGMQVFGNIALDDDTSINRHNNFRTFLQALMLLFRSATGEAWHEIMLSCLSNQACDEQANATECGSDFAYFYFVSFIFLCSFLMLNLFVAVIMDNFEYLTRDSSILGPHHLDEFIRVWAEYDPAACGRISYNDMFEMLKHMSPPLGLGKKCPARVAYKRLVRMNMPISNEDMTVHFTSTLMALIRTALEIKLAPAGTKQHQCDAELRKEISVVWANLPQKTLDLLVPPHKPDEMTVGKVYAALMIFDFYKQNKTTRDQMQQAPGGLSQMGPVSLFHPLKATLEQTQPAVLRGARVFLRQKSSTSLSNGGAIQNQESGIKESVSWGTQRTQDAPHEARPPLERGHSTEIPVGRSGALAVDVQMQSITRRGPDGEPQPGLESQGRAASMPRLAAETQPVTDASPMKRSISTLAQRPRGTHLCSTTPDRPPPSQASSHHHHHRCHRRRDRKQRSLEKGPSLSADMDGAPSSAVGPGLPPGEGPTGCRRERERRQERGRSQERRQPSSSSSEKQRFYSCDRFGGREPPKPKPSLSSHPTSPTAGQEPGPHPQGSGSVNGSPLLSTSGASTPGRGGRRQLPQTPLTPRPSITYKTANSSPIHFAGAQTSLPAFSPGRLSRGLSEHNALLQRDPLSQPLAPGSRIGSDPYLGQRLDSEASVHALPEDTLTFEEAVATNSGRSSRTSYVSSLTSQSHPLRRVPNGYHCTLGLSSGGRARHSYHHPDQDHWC

CC1(S(=O)(=O)c2cccc(C(F)(F)F)c2)CCOC(c2ccc(S(C)(=O)=O)c(F)c2)C1 (stereo not drawn) [SC-209, 2-(3-Fluoro-4-methylsulfonyl-phenyl)-4-methyl-4-[[3-(trifluoromethyl)phenyl]sulfonyl]-tetrahydro-pyran]
Activity Category: %-Inhib (CaV2.2) @3 μM @30 mM KCl: B (%-Inhibition >75% up to ≦95%)

Cc1ccc(C2CC(C)(S(=O)(=O)c3cccc(C(F)(F)F)c3)CCO2)cc1S(C)(=O)=O (stereo not drawn) [SC-210, 4-Methyl-2-(4-methyl-3-methylsulfonyl-phenyl)-4-[[3-(trifluoromethyl)phenyl]sulfonyl]-tetrahydro-pyran]
inhibition at 3 µM: > 95%

CC1(S(=O)(=O)c2cccc(C(F)(F)F)c2)CCOC(c2ccc(F)c(S(C)(=O)=O)c2)C1 (stereo not drawn) [SC-212, 2-(4-Fluoro-3-methylsulfonyl-phenyl)-4-methyl-4-[[3-(trifluoromethyl)phenyl]sulfonyl]-tetrahydro-pyran]
inhibition at 3 µM: > 95%

CC1(S(=O)(=O)c2cccc(C(F)(F)F)c2)CCOC(c2ccc(F)c(S(C)(=O)=O)c2)C1 (stereo not drawn) [SC-213, 2-(4-Fluoro-3-methylsulfonyl-phenyl)-4-methyl-4-[[3-(trifluoromethyl)phenyl]sulfonyl]-tetrahydro-pyran]
Activity Category: %-Inhib (CaV2.2) @3 μM @30 mM KCl: B (%-Inhibition >75% up to ≦95%)

CN(C)CC1(S(=O)(=O)c2cccc(C(F)(F)F)c2)CCOC(c2ccc(Cl)cc2)C1 (stereo not drawn) [SC-214, [[2-(4-Chlorophenyl)-4-[[3-(trifluoromethyl)phenyl]sulfonyl]-tetrahydro-pyran-4-yl]-methyl]-dimethyl-amine]
Activity Category: %-Inhib (CaV2.2) @3 μM @30 mM KCl: A (%-Inhibition >95%)

CN(C)CC1(S(=O)(=O)c2cccc(C(F)(F)F)c2)CCOC(c2ccc(Cl)cc2)C1 (stereo not drawn) [SC-215, [[2-(4-Chlorophenyl)-4-[[3-(trifluoromethyl)phenyl]sulfonyl]-tetrahydro-pyran-4-yl]-methyl]-dimethyl-amine]
Activity Category: %-Inhib (CaV2.2) @3 μM @30 mM KCl: C (%-Inhibition >40% up to ≦75%)

COCC1(S(=O)(=O)c2cccc(C(F)(F)F)c2)CCOC(c2ccc(Cl)cc2)C1 (stereo not drawn) [SC-216, 2-(4-Chlorophenyl)-4-(methoxymethyl)-4-[[3-(trifluoromethyl)phenyl]sulfonyl]-tetrahydro-pyran]
Activity Category: %-Inhib (CaV2.2) @3 μM @30 mM KCl: B (%-Inhibition >75% up to ≦95%)

COCC1(S(=O)(=O)c2cccc(C(F)(F)F)c2)CCOC(c2ccc(Cl)cc2)C1 (stereo not drawn) [SC-217, 2-(4-Chlorophenyl)-4-(methoxymethyl)-4-[[3-(trifluoromethyl)phenyl]sulfonyl]-tetrahydro-pyran]
Activity Category: %-Inhib (CaV2.2) @3 μM @30 mM KCl: C (%-Inhibition >40% up to ≦75%)

CC1(S(=O)(=O)c2cccc(C(F)(F)F)c2)CCOC(c2ccc(S(C)(=O)=O)cc2Cl)C1 (stereo not drawn) [SC-218, 2-(2-Chloro-4-methylsulfonyl-phenyl)-4-methyl-4-[[3-(trifluoromethyl)phenyl]sulfonyl]-tetrahydro-pyran]
inhibition at 3 µM: > 95%

CC1(S(=O)(=O)c2cccc(C(F)(F)F)c2)CCOC(c2cccc(S(C)(=O)=O)c2)C1 (stereo not drawn) [SC-220, 4-Methyl-2-(3-methylsulfonyl-phenyl)-4-[[3-(trifluoromethyl)phenyl]sulfonyl]-tetrahydro-pyran]
inhibition at 3 µM: 75 to 95%

CC1(S(=O)(=O)c2cccc(C(F)(F)F)c2)CCOC(c2ccccc2S(C)(=O)=O)C1 (stereo not drawn) [SC-222, 4-Methyl-2-(2-methylsulfonyl-phenyl)-4-[[3-(trifluoromethyl)phenyl]sulfonyl]-tetrahydro-pyran]
Activity Category: %-Inhib (CaV2.2) @3 μM @30 mM KCl: A (%-Inhibition >95%)

CC1(S(=O)(=O)c2cccc(C(F)(F)F)c2)CCOC(c2ccccc2S(C)(=O)=O)C1 (stereo not drawn) [SC-223, 4-Methyl-2-(2-methylsulfonyl-phenyl)-4-[[3-(trifluoromethyl)phenyl]sulfonyl]-tetrahydro-pyran]
Activity Category: %-Inhib (CaV2.2) @3 μM @30 mM KCl: C (%-Inhibition >40% up to ≦75%)

Cc1cc(Cl)ccc1C1CC(C)(S(=O)(=O)c2cccc(C(F)(F)F)c2)CCO1 (stereo not drawn) [SC-224, 2-(4-Chloro-2-methyl-phenyl)-4-methyl-4-[[3-(trifluoromethyl)phenyl]sulfonyl]-tetrahydro-pyran]
inhibition at 3 µM: 75 to 95%

Cc1cc(Cl)ccc1C1CC(C)(S(=O)(=O)c2cccc(C(F)(F)F)c2)CCO1 (stereo not drawn) [SC-225, 2-(4-Chloro-2-methyl-phenyl)-4-methyl-4-[[3-(trifluoromethyl)phenyl]sulfonyl]-tetrahydro-pyran]
Activity Category: %-Inhib (CaV2.2) @3 μM @30 mM KCl: A (%-Inhibition >95%)

COc1cc(C2CC(C)(S(=O)(=O)c3cccc(C(F)(F)F)c3)CCO2)ccc1Cl (stereo not drawn) [SC-226, 2-(4-Chloro-3-methoxy-phenyl)-4-methyl-4-[[3-(trifluoromethyl)phenyl]sulfonyl]-tetrahydro-pyran]
inhibition at 3 µM: > 95%

CC1(S(=O)(=O)c2cccc(C(F)(F)F)c2)CCOC(c2ccc(F)c(Cl)c2)C1 (stereo not drawn) [SC-228, 2-(3-Chloro-4-fluoro-phenyl)-4-methyl-4-[[3-(trifluoromethyl)phenyl]sulfonyl]-tetrahydro-pyran]
inhibition at 3 µM: > 95%

CCC1(S(=O)(=O)c2cccc(C(F)(F)F)c2)CCOC(c2ccc(Cl)cc2)C1 (stereo not drawn) [SC-230, 2-(4-Chlorophenyl)-4-ethyl-4-[[3-(trifluoromethyl)phenyl]sulfonyl]-tetrahydro-pyran]
inhibition at 3 µM: > 95%

CCC1(S(=O)(=O)c2cccc(C(F)(F)F)c2)CCOC(c2ccc(Cl)cc2)C1 (stereo not drawn) [SC-231, 2-(4-Chlorophenyl)-4-ethyl-4-[[3-(trifluoromethyl)phenyl]sulfonyl]-tetrahydro-pyran]
Activity Category: %-Inhib (CaV2.2) @3 μM @30 mM KCl: B (%-Inhibition >75% up to ≦95%)

CC1(S(=O)(=O)c2cccc(C(F)(F)F)c2)CCOC(c2ccc(C(F)(F)F)cc2S(C)(=O)=O)C1 (stereo not drawn) [SC-232, 4-Methyl-2-[2-methylsulfonyl-4-(trifluoromethyl)-phenyl]-4-[[3-(trifluoromethyl)phenyl]sulfonyl]-tetrahydro-pyran]
inhibition at 3 µM: > 95%

CC1(S(=O)(=O)c2cccc(C(F)(F)F)c2)CCOC(c2ccc(S(C)(=O)=O)c(C(F)(F)F)c2)C1 (stereo not drawn) [SC-235, 4-Methyl-2-[4-methylsulfonyl-3-(trifluoromethyl)-phenyl]-4-[[3-(trifluoromethyl)phenyl]sulfonyl]-tetrahydro-pyran]
inhibition at 3 µM: > 95%

CC1(S(=O)(=O)c2cccc(C(F)(F)F)c2)CCOC(c2ccc(Cl)c(S(C)(=O)=O)c2)C1 (stereo not drawn) [SC-237, 2-(4-Chloro-3-methylsulfonyl-phenyl)-4-methyl-4-[[3-(trifluoromethyl)phenyl]sulfonyl]-tetrahydro-pyran]
inhibition at 3 µM: > 95%

CC1(S(=O)(=O)c2cccc(C(F)(F)F)c2)CCOC(c2ccc(S(C)(=O)=O)c(Cl)c2)C1 (stereo not drawn) [SC-239, 2-(3-Chloro-4-methylsulfonyl-phenyl)-4-methyl-4-[[3-(trifluoromethyl)phenyl]sulfonyl]-tetrahydro-pyran]
inhibition at 3 µM: > 95%

CC1(S(=O)(=O)c2cccc(C(F)(F)F)c2)CCOC(c2ccc(S(C)(=O)=O)cc2F)C1 (stereo not drawn) [SC-241, 2-(2-Fluoro-4-methylsulfonyl-phenyl)-4-methyl-4-[[3-(trifluoromethyl)phenyl]sulfonyl]-tetrahydro-pyran]
inhibition at 3 µM: > 95%

CC1(S(=O)(=O)c2cccc(C(F)(F)F)c2)CCOC(c2cc(Cl)cc(S(C)(=O)=O)c2)C1 (stereo not drawn) [SC-243, 2-(3-Chloro-5-methylsulfonyl-phenyl)-4-methyl-4-[[3-(trifluoromethyl)phenyl]sulfonyl]-tetrahydro-pyran]
inhibition at 3 µM: > 95%

CC1(S(=O)(=O)c2cccc(C(F)(F)F)n2)CCOC(c2ccc(S(C)(=O)=O)c(F)c2)C1 (stereo not drawn) [SC-245, 2-[[2-(3-Fluoro-4-methylsulfonyl-phenyl)-4-methyl-tetrahydro-pyran-4-yl]sulfonyl]-6-(trifluoromethyl)-pyridine]
inhibition at 3 µM: 40 to 75%

CC1(S(=O)(=O)c2cccc(C(F)(F)F)c2)CCOC(c2cc(S(C)(=O)=O)ccc2Cl)C1 (stereo not drawn) [SC-247, 2-(2-Chloro-5-methylsulfonyl-phenyl)-4-methyl-4-[[3-(trifluoromethyl)phenyl]sulfonyl]-tetrahydro-pyran]
inhibition at 3 µM: > 95%

CC1(S(=O)(=O)c2cccc(C(F)(F)F)c2)CCOC(c2ccc(C(F)(F)F)c(S(C)(=O)=O)c2)C1 (stereo not drawn) [SC-249, 4-Methyl-2-[3-methylsulfonyl-4-(trifluoromethyl)-phenyl]-4-[[3-(trifluoromethyl)phenyl]sulfonyl]-tetrahydro-pyran]
inhibition at 3 µM: > 95%
